≈ marks a conversion by molar mass, not a printed value.
How the values were obtained:
[1] = biological target: Carbonic anhydrase 1 (Homo sapiens, UniProt P00915); assay: Inhibition of human CA1 by UV spectrophotometric analysis
[2] = biological target: Carbonic anhydrase 2 (Homo sapiens, UniProt P00918); assay: Inhibition of human CA2 by UV spectrophotometric analysis
[3] = biological target: Acetylcholinesterase (Homo sapiens, UniProt P22303)
[4] = system: Streptococcus pyogenes; assay: Antibacterial activity against Streptococcus pyogenes assessed as inhibition of microbial growth; assay type: functional
[5] = system: Staphylococcus aureus; assay: Antibacterial activity against Staphylococcus aureus assessed as inhibition of microbial growth; assay type: functional
[6] = system: Aspergillus niger; assay: Antifungal activity against Aspergillus niger; assay type: functional
[7] = system: Aspergillus clavatus; assay: Antifungal activity against Aspergillus clavatus; assay type: functional
[8] = system: Candida albicans; assay: Antifungal activity against Candida albicans; assay type: functional
[9] = system: Escherichia coli; assay: microbe, parasite or virus in culture
[10] = system: Pseudomonas aeruginosa; assay: microbe, parasite or virus in culture
[11] = system: Mycolicibacterium smegmatis; assay: Antimycobacterial activity against Mycobacterium smegmatis; assay type: functional
[12] = system: Mycobacterium tuberculosis; assay: Antimycobacterial activity against Mycobacterium tuberculosis; assay type: functional
[13] = system: Candida albicans; assay: microbe, parasite or virus in culture
[14] = system: Staphylococcus aureus; assay: microbe, parasite or virus in culture
[15] = system: UO-31; assay: Cytotoxicity against human UO-31 cells by SRB method; assay type: functional; conditions: read-out: LC50 (the source's name)
[16] = Growth inhibition of human Panel NCI-58 (58 carcinoma cell lines) cells by SRB method; assay type: functional
[17] = Cytotoxicity against human Panel NCI-58 (58 carcinoma cell lines) cells by SRB method; assay type: functional; conditions: read-out: LC50 (the source's name)
[18] = system: UO-31; assay: Growth inhibition of human UO-31 cells by SRB method; assay type: functional
[19] = system: AGS; assay: Anticancer activity against human AGS cells by MTS assay; assay type: functional, cell-based
[20] = system: ECa-109 cell line; assay: Anticancer activity against human Eca-109 cells by MTS assay; assay type: functional, cell-based
[21] = Anticancer activity against human HCC446 cells by MTS assay; assay type: functional, cell-based
[22] = system: DU-145; assay: Cytotoxicity against human DU-145 cells by SRB assay; assay type: functional
[23] = system: HepG2; assay: Cytotoxicity against human HepG2 cells by SRB assay; assay type: functional
[24] = system: HeLa; assay: Cytotoxicity against human HeLa cells by SRB assay; assay type: functional
[25] = system: A549; assay: Cytotoxicity against human A549 cells by SRB assay; assay type: functional
[26] = species: Mus musculus; assay: Antidepressant activity in mouse assessed as […] by tail suspension test; assay type: functional
[27] = species: Mus musculus; assay: Antidepressant activity in Swiss albino mouse assessed as decrease in duration of immobility by tail suspension test relative to control; assay type: functional; design: scale not given: the % may be the effect or the level left
[28] = species: Mus musculus; assay: Antianxiety activity in mouse assessed as increase in number of entries in different arms; assay type: functional
[29] = system: Mus musculus; assay: Antidepressant activity in Swiss albino mouse assessed as decrease in duration of immobility at 100 mg/kg, po by forced swimming test relative to control; assay type: functional; design: scale not given: the % may be the effect or the level left
[30] = species: Mus musculus; assay: Antidepressant activity in mouse assessed as […] by forced swimming test; assay type: functional
[31] = system: Rhizopus arrhizus; assay: Antifungal activity against Rhizopus oryzae; assay type: functional
[32] = system: Escherichia coli; assay: Antibacterial activity against Escherichia coli; assay type: functional
[33] = system: Staphylococcus aureus; assay: Antibacterial activity against Staphylococcus aureus; assay type: functional
[34] = system: Plasmodium falciparum; assay: Antimalarial activity against chloroquine-sensitive Plasmodium falciparum 3D7; assay type: functional, organism-based

Sequence of Carbonic anhydrase 1 (P00915 whole entry): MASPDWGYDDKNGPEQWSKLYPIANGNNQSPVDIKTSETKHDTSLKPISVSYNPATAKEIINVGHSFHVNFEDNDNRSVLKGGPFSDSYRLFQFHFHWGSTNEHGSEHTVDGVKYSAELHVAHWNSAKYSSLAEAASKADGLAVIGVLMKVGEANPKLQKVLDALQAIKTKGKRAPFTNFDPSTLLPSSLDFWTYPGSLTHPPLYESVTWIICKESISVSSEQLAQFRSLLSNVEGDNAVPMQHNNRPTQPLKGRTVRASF
Sequence of Acetylcholinesterase (P22303 whole entry): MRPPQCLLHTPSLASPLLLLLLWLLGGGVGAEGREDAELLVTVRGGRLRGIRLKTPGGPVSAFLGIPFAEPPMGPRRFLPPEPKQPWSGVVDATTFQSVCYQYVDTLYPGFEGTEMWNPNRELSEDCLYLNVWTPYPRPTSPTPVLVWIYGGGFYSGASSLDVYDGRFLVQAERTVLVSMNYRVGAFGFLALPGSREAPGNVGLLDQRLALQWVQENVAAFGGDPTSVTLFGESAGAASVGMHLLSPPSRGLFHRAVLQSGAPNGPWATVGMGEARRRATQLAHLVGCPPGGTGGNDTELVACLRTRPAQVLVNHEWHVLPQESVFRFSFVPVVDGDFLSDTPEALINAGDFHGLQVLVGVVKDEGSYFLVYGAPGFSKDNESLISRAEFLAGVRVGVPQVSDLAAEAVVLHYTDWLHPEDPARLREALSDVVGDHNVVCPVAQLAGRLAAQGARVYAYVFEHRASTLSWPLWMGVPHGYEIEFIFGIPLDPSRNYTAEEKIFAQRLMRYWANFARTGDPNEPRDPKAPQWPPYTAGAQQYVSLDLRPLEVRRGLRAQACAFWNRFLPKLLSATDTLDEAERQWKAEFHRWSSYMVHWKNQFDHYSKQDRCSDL

COc1ccc(C2CC(c3ccc(Cl)cc3)=NN2c2ccc(S(N)(=O)=O)cc2)cc1OC (stereo unspecified)
Ki [1]: 0.0279 µM
Ki [2]: 0.0274 µM
Ki [3]: 0.0377 µM

O=C(c1ccncc1)N1N=C(c2ccc([N+](=O)[O-])cc2)CC1c1cc2ccccc2nc1Cl (stereo unspecified)
MIC [4]: 12.5 µg/mL
MIC [5]: 12.5 µg/mL
MIC [6]: 12.5 µg/mL (≈ 27.3 µM)
MIC [7]: 12.5 µg/mL (≈ 27.3 µM)
MIC [8]: 12.5 µg/mL (≈ 27.3 µM)

O=C(c1ccncc1)N1N=C(c2ccc(F)cc2)CC1c1cc2ccccc2nc1Cl (stereo unspecified)
MIC [9]: 12.5 µg/mL (≈ 29 µM)
MIC [10]: 12.5 µg/mL (≈ 29 µM)
MIC [8]: 12.5 µg/mL (≈ 29 µM)

Clc1ccc(-n2cc(C3CC(c4ccc(-c5ccccc5)cc4)=NN3)c(-c3cccs3)n2)cc1 (stereo unspecified)
MIC [11]: 7.8 µg/mL (≈ 16.2 µM)
MIC [12]: 1.56 µg/mL (≈ 3.24 µM)
MIC [13]: 1.56 µg/mL (≈ 3.24 µM)
MIC [14]: 1.56 µg/mL (≈ 3.24 µM)

O=C(c1ccncc1)N1N=C(c2ccc(Cl)cc2Cl)CC1c1cc2ccccc2nc1Cl (stereo unspecified)
MIC [4]: 12.5 µg/mL
MIC [5]: 12.5 µg/mL
MIC [6]: 12.5 µg/mL (≈ 25.9 µM)
MIC [7]: 50 µg/mL (≈ 104 µM)
MIC [8]: 12.5 µg/mL (≈ 25.9 µM)

O=C(/C=C/c1ccc(C(F)(F)F)cc1)c1ccc(Nc2nc(NCCO)nc(NCCO)n2)cc1
CC50 [15]: 19.5 µM
GI50 [16]: 0.569 µM
CC50 [17]: 5.15 µM
GI50 [18]: 1.5 µM

C[C@]12CCC3(CC1=CCC1C2CC[C@]2(C)C4=NN[C@H](c5ccccc5)[C@H]4CC12)OCCO3 (stereo partly specified)
IC50 [19]: 27.4 µM
IC50 [20]: 17.5 µM
IC50 [21]: 25.3 µM

COc1ccc(-c2nn(-c3ccc(Cl)cc3)cc2C2CC(c3ccc(-c4ccccc4)cc3)=NN2)cc1 (stereo unspecified)
MIC [11]: 15.6 µg/mL (≈ 30.9 µM)
MIC [13]: 15.6 µg/mL (≈ 30.9 µM)
MIC [14]: 15.6 µg/mL (≈ 30.9 µM)

COc1ccc(C2CC(c3cc(OC)c(OC)c(OC)c3)=NN2C(C)=O)cc1OCc1cn(Cc2ccc(F)c(Cl)c2)nn1 (stereo unspecified)
GI50 [22]: 7 µM
GI50 [23]: 7 µM
GI50 [24]: 7 µM
GI50 [25]: 7 µM

CN(C)CCCN1c2ccccc2CCc2ccccc21 [IMIPRAMINE]
Time [26]: 29.33 s
Activity [27]: 61.96%
Activity [28]: -9.33
Activity [29]: 62.12%
Time [30]: 29.33 s

COc1cc(C2CC(c3cc4ccccc4oc3=O)=NN2c2ccccc2)cc(OC)c1OC (stereo unspecified)
MIC [31]: 12.5 µg/mL (≈ 27.4 µM)
MIC [32]: 12.5 µg/mL (≈ 27.4 µM)
MIC [33]: 10 µg/mL (≈ 21.9 µM)
IC50 [34]: 11.6 µg/mL (≈ 25.5 µM)

COc1ccc(C2CC(c3ccccc3)=NN2c2ccc(S(N)(=O)=O)cc2)cc1OC (stereo unspecified)
Ki [1]: 0.0279 µM
Ki [2]: 0.0274 µM
Ki [3]: 0.0377 µM
